Tested on: medulloblastoma D384 cells
Experiment: exoDNA yield in microvesicles after inhibition of DNA replication with L-mimosine
Type: cell-based, human
Settings: D384 cells treated with L-mimosine (200, 400 and 600 μM), microvesicles isolated from medium after 48 hrs, ssDNA yield compared to mock treated cells
Experimental: D384 cells were seeded in 6-well plates and treated with increasing dosages of L-mimosine (200, 400 and 600 μM) or mock treated. Microvesicles were isolated from the medium after 48 hrs and ssDNA was extracted using the Qiagen PCR purification kit. Single-stranded DNA yields were quantified using the Bioanalyzer and the yields were compared to mock treated cells (normalized to 1.0).
We used L-mimosine to inhibit DNA replication and examined whether the inhibition affected the yield of exoDNA. If the exoDNA yield is decreased after inhibition, it is very likely that exoDNA may contain fragments of genomic DNA.
Specifically, D384 cells were plated on 6-well plates (2×10^6 cells/well) and treated with increasing amounts (200, 400 and 600 μM) of L-mimosine (Sigma-Aldrich, St. Louis, Mo.) which is an inhibitor of DNA replication. The drug was added at one time point and 48 hrs after, the media was collected and processed for the isolation of microvesicles. Cell viability was assessed by cell count using the Countess Automated Cell Counter (Invitogen). SsDNA yields are normalized to one.

## N[C@@H](Cn1ccc(=O)c(O)c1)C(=O)O [L-mimosine]
  decrease of exoDNA yield in microvesicles: about 50%
